These results are taken from US6680334B2, “Crystalline material” (Pfizer Inc, priority 2001, dated 2004).

Values after ≈ are worked out from the molar mass of the structure shown.

Data set [1] can be described thus: Solubility in aqueous buffers of different pH. Particulars: for solubility: aqueous buffer. It is filed as physicochemical.
The format of data set [2] is physicochemical. On the procedure: The stability of crystalline amlodipine free base bulk and amlodipine free base tablets was assessed by storing samples for up to 6 or 12 weeks at 25° C./60% RH, 40° C./75% RH and 50° C./20% RH. Changes were monitored using a stability-indicating HPLC method. Results were calculated by normalised peak area (npa). Degradants were identified by comparison of their relative retention times against impurity standards.

One may read the solubility as how much of the substance goes into solution per volume. The low end stands for little dissolved substance, the high end for much dissolved substance. As for `CCOC(=O)C1=C(COCCN)NC(C)=C(C(=O)OC)C1c1ccccc1Cl` (racemic) [Example 2, Amlodipine], the solubility is over 5000 µg/mL in data set [1] (pH 1.2, simulated gastric fluid, SGN pH: 1.20); over 5000 µg/mL in data set [1] (Acetate pH: 5.93); 130 µg/mL (≈ 318 µM) in data set [1] (Glycine pH: 9.25); under 50 µg/mL in data set [1] (NaOH pH: 11.44); 720 µg/mL (≈ 1760 µM) in data set [1] (Phosphate pH: 7.71).
In the case of `CCOC(=O)C1=C(COCCN)NC(C)=C(C(=O)OC)C1c1ccccc1Cl` (stereo not shown) [crystalline amlodipine free base, 2-[(2-aminoethoxy)]-methyl-4-(2-chlorophenyl)-3-ethoxycarbonyl-5-methoxycarbonyl-6-methyl-1,4-dihydropyridine], the “Stability with respect to formation of known and unknown degradants” value in data set [2] is given as “stability was demonstrated”.
Take `CCOC(=O)C1=C(COCCN)NC(C)=C(C(=O)OC)C1c1ccccc1Cl` (stereo not shown) [solid free base initially synthesised, Amlodipine, reference compound]: the “Solubility (in words)” value in data set [1] (solid free base initially synthesised in-house, no conditions given) is listed as “poorly soluble”.
